The values below come from patent US10563204B2, “Methods of treating cancer harboring hemizygous loss of TP53” (priority 2015, dated 2020).

Converted amounts (≈) assume the structure as drawn. Numbered stars: 1 amine (or outer) side, 2 acyl side, 3 side chain; on linkers, the order of the positions; unused ones are H or OH. Bridge positions count the residues as written; N and C are the ends. Square brackets hold non-standard residues; d marks the D form. Peptide text beside a SMILES is read from it. I, II: the chains in the order shown. Actinocin(9to1) = Cc1c2oc3c(C)ccc(C(=O)[*:1])c3nc-2c(C(=O)[*:2])c(N)c1=O; NMeV = CN[C@H](C(=O)O)C(C)C; Sar = CNCC(=O)O

In one data set the test system is POLR2A^loss HCT116 cells. The data set is described as follows: Cell proliferation and survival assay, isogenic HCT116 cells with hemizygous loss of POLR2A (CRISPR/Cas9). It counts as cell-based, human. The protocol:
(§1) Equal numbers of cells were plated in 12-well plates in triplicate. Cells were fixed with 10% methanol and stained with 0.1% crystal violet (dissolved in 10% methanol) at indicated times. After staining, wells were washed three times with PBS and destained with acetic acid. The absorbance of the crystal violet solution was measured at 590 nm. For cell survival assay, cells were seeded at a concentration of 1,000 cells per well in 96-well plates and treated with indicated concentrations of α-Amanitin or actinomycin D 24 hours later. Cell viability was quantified using WST-1 reagent (Roche) according to the manufacturer's instructions. All experiments were performed in triplicate.
To exclude the effects of various genetic backgrounds across cell lines, the CRISPR (clustered regularly interspaced short palindromic repeat)/Cas9 system was employed to generate an isogenic HCT116 cell line with hemizygous loss of POLR2A (Wang et al., 2014; Wang et al., 2013). Two single-guide RNAs (sgRNAs) were designed to target the second exon of the POLR2A gene (FIG. 9A). Both of them efficiently targeted and disrupted the POLR2A gene, as shown in the Surveyor analysis (FIG. 9B). Single colonies of HCT116 cells bearing mono-allelic deletion of POLR2A were selected and verified by DNA sequencing (FIG. 9C). Small deletion in the targeted region led to open reading frame shift, producing only a short stretch of the N-terminal peptide without all functional domains of POLR2A. […] However, hemizygous deletion of POLR2A dramatically sensitized HCT116 cells to α-Amanitin treatment with an IC50 of ˜0.1 μg ml^−1, which is 8-fold lower than that of parental HCT116 cells (FIGS. 2G and 2H). […] POLR2A^loss and POLR2A^neutral HCT116 cells expressing Dox-inducible POLR2A shRNA were also generated. […] While a low-dose of Dox (100 ng ml^−1) was sufficient to remarkably kill the POLR2A^loss cells, high doses of Dox only had minimal effects on the POLR2A^neutral cells (FIGS. 2I, 2J, and 9H).

For data set [1], the system named is POLR2A^loss cells (SW837, SNU283). The data set is described as follows: Cell proliferation and survival assay, POLR2A^loss colorectal cancer cells. It is filed as cell-based, human. The procedure:
as §1

For data set [2] the following is noted: free α-Amanitin; cited from earlier work.
A further data set has as its target OATP1B3 (Homo sapiens, UniProt Q9NPD5). Conditions: free α-Amanitin; transporter on hepatocyte membrane; cited from earlier work.
The subject of the next data set is xhCRC and HCT116 cells. The data set is described as follows: Sensitivity of isogenic xhCRC and HCT116 cells (TP53 / POLR2A hemizygous deletion) to α-Amanitin. It is filed as cell-based, human. The procedure:
as §1
(§2) Blockage of RNA polymerase may lead to p53 accumulation and activation (Derheimer et al., 2007). To examine the effects of p53 on cell response to POLR2A inhibition, the concomitant deletion of TP53 and POLR2A was recapitulated in HCT116 and xhCRC cell lines (FIGS. 3A and 10A-10C). […] The RNA polymerase II is in charge of mRNA synthesis, an essential function for any type of cells including therapy-resistant tumor cells. The drug sensitivity of POLR2A^neutral and POLR2A^loss cells to three major chemotherapy drugs for colorectal cancer (5-fluorouracil (5-FU), oxaliplatin, and SN-38) was examined. […]

Data set [3] deals with POLR2A^neutral cells (HCT116, SW480). Description: Cell proliferation and survival assay, POLR2A^neutral colorectal cancer cells. It counts as cell-based, human. The protocol:
as §1

The test system of the next data set is POLR2A^loss xhCRC cells. It is filed as cell-based, human. Conditions: α-Amanitin combined with each of the three drugs. The procedure:
as §1, §2

In data set [4] the test system is POLR2A^neutral xhCRC cells. It is filed as cell-based, human. Conditions: α-Amanitin combined with each of the three drugs. The protocol: as §1, §2

Chain of OATP1B3 (Q9NPD5 whole entry): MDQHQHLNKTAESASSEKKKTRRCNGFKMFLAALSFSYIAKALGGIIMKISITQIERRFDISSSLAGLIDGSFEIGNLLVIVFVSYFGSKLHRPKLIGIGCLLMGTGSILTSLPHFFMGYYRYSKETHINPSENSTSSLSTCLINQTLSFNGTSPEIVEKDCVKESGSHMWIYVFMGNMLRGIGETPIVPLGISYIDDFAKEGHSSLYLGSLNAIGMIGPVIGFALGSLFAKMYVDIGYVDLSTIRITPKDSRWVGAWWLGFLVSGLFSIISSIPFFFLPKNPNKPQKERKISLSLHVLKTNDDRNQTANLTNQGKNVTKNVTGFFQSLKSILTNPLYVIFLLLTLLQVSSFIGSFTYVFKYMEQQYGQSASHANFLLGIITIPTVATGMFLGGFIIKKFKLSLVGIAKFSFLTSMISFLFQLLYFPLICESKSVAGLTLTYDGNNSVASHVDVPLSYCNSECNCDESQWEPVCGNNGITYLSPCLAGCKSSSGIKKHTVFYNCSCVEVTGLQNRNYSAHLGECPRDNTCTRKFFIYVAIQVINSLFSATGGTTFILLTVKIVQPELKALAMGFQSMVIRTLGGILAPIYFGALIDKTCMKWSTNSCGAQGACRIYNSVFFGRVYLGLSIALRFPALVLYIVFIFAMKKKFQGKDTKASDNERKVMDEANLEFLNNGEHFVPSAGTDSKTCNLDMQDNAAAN

For the compound `Cc1c2oc3c(C)ccc(C(=O)N[C@@H]4C(=O)N[C@H](C(C)C)C(=O)N5CCC[C@H]5C(=O)N(C)CC(=O)N(C)[C@@H](C(C)C)C(=O)O[C@@H]4C)c3nc-2c(C(=O)N[C@@H]2C(=O)N[C@H](C(C)C)C(=O)N3CCC[C@H]3C(=O)N(C)CC(=O)N(C)[C@@H](C(C)C)C(=O)O[C@@H]2C)c(N)c1=O` [actinomycin D] (I: T[dV]P[Sar][NMeV] / II: T[dV]P[Sar][NMeV]; ester I:1-I:C, II:1-II:C; linker I:N-II:N via Actinocin(9to1)), the “difference in sensitivity between POLR2A^loss and POLR2A^neutral HCT116 cells” value in the data set with POLR2A^loss HCT116 cells (actinomycin D) is listed as “no substantial difference”. Further, in data set [1] (actinomycin D treatment), the “sensitivity compared with POLR2A^neutral cells” value is “did not show any greater sensitivity”.

For `CC[C@H](C)[C@@H]1NC(=O)CNC(=O)[C@@H]2Cc3c([nH]c4cc(O)ccc34)[S+]([O-])C[C@@H](NC(=O)CNC1=O)C(=O)N[C@@H](CC(N)=O)C(=O)N1C[C@H](O)C[C@H]1C(=O)N[C@@H]([C@@H](C)[C@@H](O)CO)C(=O)N2` (stereo in doubt) [α-Amanitin], the IC50 in the data set on POLR2A^loss HCT116 cells (HCT116 with hemizygous deletion of POLR2A) was ~0.1 µg/mL (≈ 0.109 µM). Besides, the “IC50 lower than that of parental HCT116 cells” value in the data set with POLR2A^loss HCT116 cells (POLR2A^loss vs parental HCT116) amounted to 8 fold. Also, the liver toxicity entry in data set [2] is “toxic to liver”. Also, the “binding by OATP1B3” value at OATP1B3 was “specifically bound”. Further, the “change in sensitivity to α-Amanitin” value in the data set with xhCRC and HCT116 cells (cells with hemizygous deletion of TP53) is on record as “no significant changes”; in the data set on xhCRC and HCT116 cells (cells with hemizygous loss of POLR2A, regardless of TP53 status), “markedly sensitized”. The “half-maximum inhibitory concentration (IC50)” value in data set [3] (POLR2A^neutral cells (HCT116, SW480)) was ~1.0 µg/mL. The “cell growth / cell death at high concentrations” value in data set [3] (≥1 μg ml^−1, HCT116, SW480) is given as “complete cell death”; in data set [1] (≥1 μg ml^−1, SW837, SNU283) it was “complete cell death”. Also, the “resistance to α-Amanitin after re-expression of exogenous POLR2A” value in data set [1] (SNU283 and SW837 re-expressing exogenous POLR2A, level comparable to HCT116 and SW480) was “restored their resistance”. Also, the “cell-killing effect compared with POLR2A^neutral cells” value in data set [1] (concentrations from 0 to 1.0 μg ml^−1) is given as “significantly higher levels of cell-killing effect”. Further, the “IC50 of POLR2A^neutral cells relative to that of POLR2A^loss cells” value in data set [1] (neutral (HCT116, SW480) vs loss (SW837, SNU283)) came out at 10 fold. Further, the “effect on cell killing by 5-FU, oxaliplatin and SN-38” value in the data set with POLR2A^loss xhCRC cells is recorded as “significantly enhanced cell-killing effects”; in data set [4], “no notable effects”.

For orientation: IC50 means the concentration that gives 50% inhibition.
